Results as given in paper PMC7577125 (Antimicrobial Agents and Chemotherapy, 2020).

What was measured:
in vitro = details: rat, hepatocytes
HBV Cp Y38F = experiment: microbe, parasite or virus in culture; format: cell-based, Hepatitis B virus
HBV Cp T109I = experiment: microbe, parasite or virus in culture; format: cell-based, Hepatitis B virus
HBV cell culture models = details: concentrations of up to 10 μM
[1] = rat, 1 μM
HBV capsid DNA = experiment: Incoming capsid assay in HepG2-NTCP cells; format: cell-based; details: Hepatitis B virus, 3 h, read-out: Capsid DNA % of Control
in vivo = details: male
Method: The same solution formulation was administered per os (p.o.) in the same species to determine oral bioavailability.
Pharmacokinetic studies were performed at Wuxi (Shanghai, China) for studies in male mouse, rat, and cynomolgus monkey and at Sai (Pune, India) for studies in male dog. For all oral studies, the formulation was administered in the fasted state (food removed at least 12 h prior to dosing) to groups of 3 per arm.

[2] = Hepatitis B virus, Huh-7, read-out: Mean EC50
[3] = Sprague-Dawley, rat, iv, 1 mg/kg
[4] = Sprague-Dawley, rat, po, 2 mg/kg
[5] = cynomolgus monkey, iv, 0.5 mg/kg

O=C(NCc1cnc(C(F)(F)F)s1)c1ccc2c(c1)NC(=O)c1ccccc1S2(=O)=O [ABI-H0731]
half-life at 1 μM (in vitro): 1.75 h
EC50 (HBV Cp Y38F; [2]): 481 ± 34 nM
Fold shift (HBV Cp Y38F; Y38F vs wild type): 3.3 fold
EC50 (HBV Cp T109I; [2]): > 10000 nM
Fold shift (HBV Cp T109I; T109I vs wild type): >68 fold
cytotoxicity (HBV cell culture models): No cytotoxicity was observed
% LBF [1]: 32%
CLpred [1]: 21 mL/min/kg
activity at 0.04 µM (HBV capsid DNA; 0.04 μM): 105%
activity at 0.12 µM (HBV capsid DNA; 0.12 μM): 107%
activity at […] (HBV capsid DNA; 0.37 μM): 103%
activity at 1.11 µM (HBV capsid DNA; 1.11 μM): 91%
activity at 3.33 µM (HBV capsid DNA; 3.33 μM): 73%
activity at 10 µM (HBV capsid DNA; 10.0 μM): 10%
Vd (in vivo; CD-1 (mouse), Sprague-Dawley (rat), beagle (dog), cynomolgus monkey, iv): 1.56 to 4.06 L/kg
Tmax (in vivo; CD-1 (mouse), Sprague-Dawley (rat), beagle (dog), cynomolgus monkey, po): 0.7 to 3.3 h
plasma clearance as % of liver blood flow (in vivo; CD-1, mouse, iv): 9%
AUC(0-inf) (in vivo; CD-1, mouse, iv, 1 mg/kg): 2070 ng·h/mL
T1/2 (in vivo; CD-1, mouse, iv, 1 mg/kg): 3.55 h
Vd (in vivo; CD-1, mouse, iv, 1 mg/kg): 2.16 L/kg
clearance (in vivo; CD-1, mouse, iv, 1 mg/kg): 8.05 mL/min/kg
half-life (in vivo; CD-1, mouse, iv, 1 mg/kg, T1/2): 3.6 h
AUC(0-inf) (in vivo; CD-1, mouse, po, 5 mg/kg): 8690 ng·h/mL
Cmax (in vivo; CD-1, mouse, po, 5 mg/kg): 1420 ng/mL
Tmax (in vivo; CD-1, mouse, po, 5 mg/kg): 1 h
bioavailability (in vivo; CD-1, mouse, po, 5 mg/kg): 84%
half-life (in vivo; CD-1, mouse, po, 5 mg/kg, T1/2): 3.03 h
plasma clearance as % of liver blood flow (in vivo; Sprague-Dawley, rat, iv): 16%
AUC(0-inf) (in vivo; [3]): 1670 ng·h/mL
T1/2 (in vivo; [3]): 4.92 h
Vd (in vivo; [3]): 3.47 L/kg
clearance (in vivo; [3]): 10.1 mL/min/kg
half-life (in vivo; Sprague-Dawley, rat, iv, 1 mg/kg, T1/2): 4.9 h
AUC(0-inf) (in vivo; [4]): 3160 ng·h/mL
Cmax (in vivo; [4]): 324 ng/mL
Tmax (in vivo; [4]): 1 h
bioavailability (in vivo; [4]): 95%
half-life (in vivo; Sprague-Dawley, rat, po, 2 mg/kg, T1/2): 6.13 h
plasma clearance as % of liver blood flow (in vivo; beagle, dog, iv): 47%
AUC(0-inf) (in vivo; beagle, dog, iv, 2 mg/kg): 2890 ng·h/mL
T1/2 (in vivo; beagle, dog, iv, 2 mg/kg): 2.46 h
Vd (in vivo; beagle, dog, iv, 2 mg/kg): 1.56 L/kg
clearance (in vivo; beagle, dog, iv, 2 mg/kg): 14.7 mL/min/kg
half-life (in vivo; beagle, dog, iv, 2 mg/kg, T1/2): 2.5 h
bioavailability (in vivo; beagle, dog, po): 49%
AUC(0-inf) (in vivo; beagle, dog, po, 3 mg/kg): 2150 ng·h/mL
Cmax (in vivo; beagle, dog, po, 3 mg/kg): 861 ng/mL
Tmax (in vivo; beagle, dog, po, 3 mg/kg): 0.667 h
half-life (in vivo; beagle, dog, po, 3 mg/kg, T1/2): 3.34 h
plasma clearance as % of liver blood flow (in vivo; cynomolgus monkey, iv): 11%
AUC(0-inf) (in vivo; [5]): 1750 ng·h/mL
Vd (in vivo; [5]): 4.06 L/kg
clearance (in vivo; [5]): 4.86 mL/min/kg
half-life (in vivo; [5]): 12.6 h
AUC(0-inf) (in vivo; cynomolgus monkey, po, 2 mg/kg): 4340 ng·h/mL
Cmax (in vivo; cynomolgus monkey, po, 2 mg/kg): 353 ng/mL
Tmax (in vivo; cynomolgus monkey, po, 2 mg/kg): 3.33 h
bioavailability (in vivo; cynomolgus monkey, po, 2 mg/kg): 55%
half-life (in vivo; cynomolgus monkey, po, 2 mg/kg): 11.6 h
